Here are results for two compounds from patent US8323704B2, “Process for preparation of extract of Decalepis hamiltonii having antioxidant activity” (Council of Scientific and Industrial Research, priority 2003, dated 2012).

A short description of assay [1]: Antioxidant assay using β-Carotene Linoleate model System (β CLAMS). The assay is classed as biochemical. To be noted: bleaching of β carotene, 180 min, 50° C. An excerpt: Antioxidant assay using β-Carotene Linoleate model System (β CLAMS) (Hidalgo et al., 1994)
This is one of the rapid methods to screen antioxidants, which is mainly based on principle that Linoleic acid which is an unsaturated fatty acid gets oxidized by “Reactive Oxgen Species” (ROS) produced by oxygenated water. The products formed will initiate the β-Carotene oxidation, which leads to discoloration.
Due to insolubility of β-Carotene in water, it is first made into emulsion. β-Carotene is dissolved in chloroform and using Tween-40 (Polyoxyethylene sorbotan manonitrate) as surfactant, it was mixed with Linoleic acid to form emulsion. The resulting mixture is diluted with triple distilled water (1 part) and mixed well. This emulsion is further made up with oxygenated water (4 parts) which initiates the process of oxidation immediately. It is transferred to tubes containing samples. Initial (zero min) reading is read, followed by recording the absorbance at 15 min intervals at 470 nm. All tubes were placed in water bath at 50° C. throughout the experiment.
β Carotene linoleic acid emulsion mixture—100 ml (Jayaprakash et al., 2000) […]
[…] Absorbance of all samples were taken at 470 nm at Zero time and tubes were placed at 50° C. in water bath., Measurement of Absorbance was continued at an interval of 15 minutes, till the colour of β carotene disappeared in the control reaction (t=180 min). […] Dose response of antioxidant activity for various extracts was determined at different concentrations.
The antioxidant activity (% AA) of extracts was evaluated in terms of bleaching of β Carotene using the following formula (Hidalgo et al, 1994).
Each experiment was carried out in triplicate and the deviation of absorbance value was less than 10%. % AA=100[1-(A^0-A^t)/A^00-A^0t)] […]
A^0=Zero time absorbance of sample
A^t=Absorbance of sample after incubation for 180 min
A^00=Zero time absorbance of control
A^t0=Absorbance of control after incubation for 180 min.
And results were expressed as % Antioxidant activity.

The nature of assay [2]: Free radical scavenging activity using D.P.P.H as stable free radical. The assay is classed as biochemical. To be noted: 20 minutes, 517 nm. The method, then: Schematic representation of chemically stable radical scavenging activity using D.P.P.H as stable free radical: (Blios, 1958)
Free radical scavenging potentials of the extracts were tested against a methanolic solution of α,α-diphenyl-β-picryl hydrazyl (D.P.P.H). Antioxidants reacts with D.P.P.H. and convert it to α,α-diphenyl-β-picryl hydrazine. The degree of discoloration indicates the scavenging potentials of the antioxidant extract. The change in the absorbance produced at 517 nm has been used as a measure of antioxidant activity.
• Methanolic solution of D.P.P.H (100 μM): 39.4 mg of D.P.P.H was dissolved in one liter of analytical grade methanol. • Preparation of the extract solutions: 55 mg of the extract was dissolved in 10 ml of methanol and filtered; the filtrate was used for the experiments. Method:
Aliquots of 0.025, 0.05, 0.1 ml of extracts and standard were taken in different test tubes. To this 5 ml of methanolic solution of D.P.P.H was added, shaken well and the mixture was allowed to stand at room temperature for 20 minutes. The blank was prepared as above without extract. […] The absorbance of blank was first noted at 517 nm. The change of absorbance of the samples was measured.
Scavenging activity was expressed as the inhibition percentage calculated using the following formula, […]

On to `COc1ccc(O)c(C(C)(C)C)c1` [Standard BHA, butylated hydroxy anisole], for which the “% Activity ± S.D (antioxidant activity, % AA)” value in assay [1] (100 ppm) came out at 84.3%; in assay [1] (500 ppm), 88.6%; in assay [1] (1000 ppm) it was 90.1%.

With “α,α-diphenyl-β-picryl hydrazyl [Standard D.P.P.H]”, the “% Activity ± S.D (anti-radical activity, inhibition percentage)” value is given as 88.3% in assay [2] (100 ppm), 92.6% in assay [2] (500 ppm) and 94.3% in assay [2] (1000 ppm).
